The source of these data is ChEMBL document CHEMBL5390248, “Design, synthesis and anticancer activity evaluation of 4-(3-1H-indazolyl)amino quinazoline derivatives as PAK4 inhibitors” (Bioorg Med Chem, 2023).

The term inhibition denotes the drop in the measured response relative to a control, in per cent. A word on the IC50: it is the concentration that inhibits the measured activity by half.

The target of data set [1] is T1, Serine/threonine-protein kinase PAK 4 (Homo sapiens, UniProt O96013). Nature of the data set: Inhibition of PAK4 (unknown origin) using lipid substrate at 100 nM incubated for 40 mins in presence of ATP by ADP-Glo plus luminescence kinase assay relative to control. On the technique in general: ADP-Glo first removes unused ATP, then detects ADP through luciferase.
Target sequence in this assay (O96013 whole entry, looked up): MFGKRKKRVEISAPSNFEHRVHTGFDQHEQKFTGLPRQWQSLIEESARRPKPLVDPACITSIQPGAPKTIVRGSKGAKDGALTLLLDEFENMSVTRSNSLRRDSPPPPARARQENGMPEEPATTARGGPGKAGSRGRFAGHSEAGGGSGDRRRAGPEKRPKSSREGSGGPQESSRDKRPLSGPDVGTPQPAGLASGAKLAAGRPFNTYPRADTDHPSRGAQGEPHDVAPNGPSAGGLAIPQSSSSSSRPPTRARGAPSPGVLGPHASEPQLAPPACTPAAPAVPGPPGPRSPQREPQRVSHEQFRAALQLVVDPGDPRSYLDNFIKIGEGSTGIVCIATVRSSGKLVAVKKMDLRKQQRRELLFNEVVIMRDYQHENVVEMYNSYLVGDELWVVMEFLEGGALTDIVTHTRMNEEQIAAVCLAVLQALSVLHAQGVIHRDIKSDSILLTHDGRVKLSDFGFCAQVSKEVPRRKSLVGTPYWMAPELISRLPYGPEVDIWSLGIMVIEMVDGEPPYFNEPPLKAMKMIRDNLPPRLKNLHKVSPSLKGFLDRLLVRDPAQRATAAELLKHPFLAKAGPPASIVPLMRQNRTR

Data set [2] relates to A549. Description: Induction of cell cycle arrest in human A549 cells assessed as accumulation of G2 phase cells at 0.5 uM measured for 24 hrs by PI staining based flow cytometric analysis (reference value: 32.4 % ). It counts as functional.
Data set [3] has as its system A549. Description: Induction of cell cycle arrest in human A549 cells assessed as accumulation of G2 phase cells at 1 uM measured for 24 hrs by PI staining based flow cytometric analysis (reference value: 32.4 % ). It counts as functional. (A flow cytometer gives signals particle by particle.)
Data set [4] concerns A549. Nature of the data set: Induction of cell cycle arrest in human A549 cells assessed as accumulation of G1 phase cells at 0.5 uM measured for 24 hrs by PI staining based flow cytometric analysis (reference value: 27.5 % ). The class given is functional.
Data set [5] relates to A549. Description: Induction of apoptosis in human A549 cells assessed as viable cells at 3 uM measured after 24 hrs by AnnexinV-FITC/propidium iodide staining based flow cytometry method (reference value: 98.7 %). It counts as functional. Particulars: read-out: Activity.
For data set [6], the system named is A549. Description: Induction of cell cycle arrest in human A549 cells assessed as accumulation of G1 phase cells at 3 uM measured for 24 hrs by PI staining based flow cytometric analysis (reference value: 27.5 % ). It counts as functional.
Data set [7] deals with A549. Nature of the data set: Induction of apoptosis in human A549 cells assessed as late apoptotic cells at 0.5 uM measured after 24 hrs by AnnexinV-FITC/propidium iodide staining based flow cytometry method (reference value: 0.12 %). The class given is functional.
Data set [8] concerns A549. Nature of the data set: Induction of cell cycle arrest in human A549 cells assessed as accumulation of S phase cells at 3 uM measured for 24 hrs by PI staining based flow cytometric analysis (reference value: 35.3 % ). It counts as functional.
Data set [9] relates to A549. Nature of the data set: Induction of apoptosis in human A549 cells assessed as early apoptotic cells at 0.5 uM measured after 24 hrs by AnnexinV-FITC/propidium iodide staining based flow cytometry method (reference value: 0.049 %). It counts as functional.
The subject of data set [10] is A549. Nature of the data set: cells. As to conditions: Homo sapiens, A549, 24 h.
Data set [11] deals with A549. Nature of the data set: Induction of apoptosis in human A549 cells assessed as viable cells at 0.5 uM measured after 24 hrs by AnnexinV FITC/propidium iodide staining based flow cytometry method (reference value: 98.7 %). The class given is functional. As to conditions: read-out: Activity.
In data set [12] the test system is A549. Description: Induction of apoptosis in human A549 cells assessed as early apoptotic cells at 1 uM measured after 24 hrs by AnnexinV-FITC/propidium iodide staining based flow cytometry method (reference value: 0.049 %). It counts as functional.
For data set [13], the system named is A549. Description: Induction of apoptosis in human A549 cells assessed as late apoptotic cells at 1 uM measured after 24 hrs by AnnexinV-FITC/propidium iodide staining based flow cytometry method (reference value: 0.12 %). The class given is functional.
Data set [14] deals with A549. Description: Induction of apoptosis in human A549 cells assessed as necrotic cells at 0.5 uM measured after 24 hrs by AnnexinV-FITC/propidium iodide staining based flow cytometry method (reference value: 1.11 %). It counts as functional.
Data set [15] has as its system A549. Description: Induction of apoptosis in human A549 cells assessed as necrotic cells at 3 uM measured after 24 hrs by AnnexinV-FITC/propidium iodide staining based flow cytometry method (reference value: 1.11 %). The class given is functional.
Data set [16] concerns A549. Description: Induction of apoptosis in human A549 cells assessed as viable cells at 1 uM measured after 24 hrs by AnnexinV-FITC/propidium iodide staining based flow cytometry method (reference value: 98.7 %). The class given is functional. As to conditions: read-out: Activity.
Data set [17] has as its system A549. Nature of the data set: Induction of cell cycle arrest in human A549 cells assessed as accumulation of S phase cells at 0.5 uM measured for 24 hrs by PI staining based flow cytometric analysis (reference value: 35.3 % ). It counts as functional.
Data set [18] can be described thus: Antiproliferative activity against HEK293T cells assessed as inhibition of cell growth incubated for 24 hrs by CCK8 assay. The class given is toxicity, cell-based, HEK-293T. As to conditions: human. Background: Formazan colour is commonly taken as a measure of viable cells.
The subject of data set [19] is A549. Nature of the data set: Induction of apoptosis in human A549 cells assessed as late apoptotic cells at 3 uM measured after 24 hrs by AnnexinV-FITC/propidium iodide staining based flow cytometry method (reference value: 0.12 %). It counts as functional.
The subject of data set [20] is A549. Description: Induction of cell cycle arrest in human A549 cells assessed as accumulation of G1 phase cells at 1 uM measured for 24 hrs by PI staining based flow cytometric analysis (reference value: 27.5 % ). It counts as functional.
In data set [21] the test system is A549. Nature of the data set: Induction of cell cycle arrest in human A549 cells assessed as accumulation of G2 phase cells at 3 uM measured for 24 hrs by PI staining based flow cytometric analysis (reference value: 32.4 % ). The class given is functional.
Data set [22] has as its system A549. Nature of the data set: Induction of apoptosis in human A549 cells assessed as necrotic cells at 1 uM measured after 24 hrs by AnnexinV-FITC/propidium iodide staining based flow cytometry method (reference value: 1.11 %). It counts as functional.
The test system of data set [23] is A549. Description: Induction of apoptosis in human A549 cells assessed as early apoptotic cells at 3 uM measured after 24 hrs by AnnexinV-FITC/propidium iodide staining based flow cytometry method (reference value: 0.049 %). It counts as functional.
Data set [24] deals with T1, Serine/threonine-protein kinase PAK 4. Nature of the data set: Inhibition of PAK4 (unknown origin) using lipid substrate incubated for 40 mins in presence of ATP by ADP-Glo plus luminescence kinase assay.
Target sequence in this assay (O96013 whole entry): as the sequence (O96013 whole entry, looked up) above
The test system of data set [25] is A549. Description: Induction of cell cycle arrest in human A549 cells assessed as accumulation of S phase cells at 1 uM measured for 24 hrs by PI staining based flow cytometric analysis (reference value: 35.3 % ). It counts as functional.
The test system of data set [26] is A549. Description: Antiproliferative activity against human A549 cells assessed as inhibition of cell growth incubated for 72 hrs by CCK8 assay. Particulars: A549, 72 h. The class given is functional, cell-based.
Data set [27] has as its system A549. Description: cells. Particulars: Homo sapiens, A549, 72 h.

Some results are limits rather than exact numbers.

As to `O=C(NCC1CNC1)c1nc(Nc2n[nH]c3ccccc23)c2cc(Cl)ccc2n1`, the inhibition in data set [1] stood at 15%.
Consider `CC(C)[C@@H](N)CNC(=O)c1nc(Nc2n[nH]c3ccccc23)c2cc(Cl)ccc2n1`, for which the Activity in the data set with A549 [2] came to 28.9%; with A549 [3] it was 22.7%; in the data set on A549 [4], 34.1%; with A549 [6], 50.9%; with A549 [7] it was 1.1%; with A549 [8], 26%. The Activity was 15.1% in the data set with A549 [9]; 27% in the data set with A549 [12]; 4.83% in the data set on A549 [13]; 2.2% in the data set on A549 [14]; 4.6% with A549 [15]; 35% with A549 [17]. The Activity worked out at 3.97% with A549 [19]; 45.2% with A549 [20]; 21.9% with A549 [21]; 3.96% in the data set with A549 [22]; 41% in the data set on A549 [23]; 31.2% in the data set with A549 [25]. Moreover, the viability at 3 µM with A549 [5] was found to be 50.5%. Besides, the half-inhibitory concentration (IC50) was found to be 610 nM in the data set with A549 [10] and 10 nM in [24]. In the data set with A549 [11], the viability at 0.5 µM was 81.6%. In [1], the inhibition was 73%. Moreover, the viability at 1 µM in the data set on A549 [16] came to 64.2%. In [18], the IC50 at 24 h was more than 10000 nM.
Take `C[C@@H]1CN(C(=O)c2nc(Nc3n[nH]c4ccccc34)c3cc(Cl)ccc3n2)CCN1`: the inhibition in data set [1] was 10%.
With `N[C@H](CNC(=O)c1nc(Nc2n[nH]c3ccccc23)c2cc(Cl)ccc2n1)Cc1ccccc1`, the IC50 stood at 2280 nM with A549 [10] and 9 nM in [24]. Besides, the inhibition in data set [1] worked out at 77%. Also, the IC50 at 24 h in data set [18] is more than 10000 nM.
As for `O=C(c1nc(Nc2n[nH]c3ccccc23)c2cc(Cl)ccc2n1)N1CCNCC1`, the inhibition in data set [1] came out at 4%.
As to `CN(C)CCCNC(=O)c1nc(Nc2n[nH]c3ccccc23)c2cc(Cl)ccc2n1`, the inhibition in data set [1] amounted to 11%.
On the same count and under the same terms, next, `CN(C)CCNC(=O)c1nc(Nc2n[nH]c3ccccc23)c2cc(Cl)ccc2n1`: 4%.
With `Cc1cc(Nc2cc(Cc3ccccc3)nc(NC3CCNCC3)n2)n[nH]1`, the half-maximal inhibitory concentration (IC50) with A549 [26] was determined as 2530 nM.
In the case of `C[C@H](N)CNC(=O)c1nc(Nc2n[nH]c3ccccc23)c2cc(Cl)ccc2n1`, the inhibition in data set [1] turned out to be 25%.
Same read-out and setting: the result for `NCCNC(=O)c1nc(Nc2n[nH]c3ccccc23)c2cc(Cl)ccc2n1` reads 2%.
Take `N[C@@H](CNC(=O)c1nc(Nc2n[nH]c3ccccc23)c2cc(Cl)ccc2n1)Cc1ccccc1`: the inhibition in data set [1] was found to be 75%. The IC50 in data set [24] stood at 11 nM.
Turning to `CNC[C@@H](C)NC(=O)c1nc(Nc2n[nH]c3ccccc23)c2cc(Cl)ccc2n1`, the inhibition in [1] came out at 27%.
As to `N[C@@H](CNC(=O)c1nc(Nc2n[nH]c3ccccc23)c2cc(Cl)ccc2n1)c1ccccc1`, the half-inhibitory concentration (IC50) was 1900 nM with A549 [10] and 13 nM in data set [24]. For the same compound, the inhibition in data set [1] amounted to 78%. Besides, the IC50 at 24 h in data set [18] was more than 10000 nM.
As for `CNCCNC(=O)c1nc(Nc2n[nH]c3ccccc23)c2cc(Cl)ccc2n1`, the inhibition in data set [1] is 3%.
For `C[C@@H](N)CNC(=O)c1nc(Nc2n[nH]c3ccccc23)c2cc(Cl)ccc2n1`, the inhibition in data set [1] was 35%.
Still for that read-out and setting: next, `O=C(NCCO)c1nc(Nc2n[nH]c3ccccc23)c2cc(Cl)ccc2n1`: 3%; `CNC[C@H](C)NC(=O)c1nc(Nc2n[nH]c3ccccc23)c2cc(Cl)ccc2n1`: 3%; `O=C(NC1CNC1)c1nc(Nc2n[nH]c3ccccc23)c2cc(Cl)ccc2n1`: 10%.
Regarding `N[C@H](CNC(=O)c1nc(Nc2n[nH]c3ccccc23)c2cc(Cl)ccc2n1)c1ccccc1`, the inhibition in data set [1] was determined as 70%. For the same compound, in [24], the half-maximal inhibitory concentration (IC50) stood at 24 nM.
Consider `CC(C)[C@H](N)CNC(=O)c1nc(Nc2n[nH]c3ccccc23)c2cc(Cl)ccc2n1`, for which, in data set [1], the inhibition came out at 76%. In addition, the half-inhibitory concentration (IC50) in data set [24] came to 16 nM.
Turning to `Cc1nc(Nc2n[nH]c3c2CN(C(=O)N[C@H](CN(C)C)c2ccccc2)C3(C)C)c2sccc2n1` [PF-03758309], the IC50 in the data set with A549 [10] worked out at 670 nM; in the data set on A549 [27], 20 nM. Further, the inhibition in data set [1] stood at 81%. Moreover, the half-maximal inhibitory concentration (IC50) at 24 h in data set [18] is more than 10000 nM.
With `C[C@H]1CN(C(=O)c2nc(Nc3n[nH]c4ccccc34)c3cc(Cl)ccc3n2)CCN1`, the inhibition in data set [1] is 3%.
